In paper PMC9597602, “Metal Complexes as Antifungals? From a Crowd-Sourced Compound Library to the First In Vivo Experiments” (JACS Au, 2022):
Read-outs that look alike come from different tables or passages of the source.

Experiments:
[1] = test system: Candida glabrata ATCC 90030 NCCLS 84; experiment: Antifungal MIC assay, extended panel; type: cell-based; details: extended panel; 50% inhibition, MIC score 2
human red blood cells = type: cell-based
Procedure: Human whole blood (Australian Red Cross) was washed three times with 3 vol of 0.9% NaCl and resuspended in a concentration of 0.5 × 10^8 cells/mL, determined by a manual cell count in a Neubauer hemocytometer. […] After incubation, the plates were centrifuged at 1000g for 10 min to pellet cells and debris; 25 μL of the supernatant was then transferred to reading plates (384-well, polystyrene plated (PS), Corning CLS3680), with hemolysis determined by measuring the supernatant absorbance at […] (OD405) using cells without inhibitors as negative control and cells with 1% Triton X-100 (Sigma T8787) as positive control. […] Melittin (Sigma M2272) was used as internal control on each plate.

[2] = test system: Cryptococcus neoformans H99 ATCC 208821 type strain; experiment: Antifungal MIC assay; type: cell-based; details: for MIC: second batch, ≥80 or ≥50% inhibition, read-out: MIC* Cryptococcus neoformans ATCC 208821; for MIC Cn: initial CO-ADD dose-response screening, ≥80% growth inhibition
Summary of the method: (§1)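 Broth microdilution in YNB medium at a final density of 2.5 × 10^3 CFU/mL, from yeast grown 3 days on YPD agar at 30 °C; incubated 35 °C for 36 h without shaking. MIC is the lowest concentration giving ≥80% growth inhibition (CLSI M27 score 0–1); n = 4–8 from replicate independent runs.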

[3] = test system: Pseudomonas aeruginosa ATCC 27853 QC control strain; experiment: CO-ADD antibacterial MIC assay; type: cell-based; details: initial CO-ADD dose-response screening; ≥80% growth inhibition
Procedure: (§2) For the all the bacterial assays, each bacterial strain was cultured in cation-adjusted Mueller Hinton broth (CAMHB; Bacto Laboratories 212322) at 37 °C overnight. A sample of each culture was then diluted 40-fold in fresh CAMHB and incubated at 37 °C for 1.5–3 h. The resultant mid-log phase cultures were diluted with CAMHB (CFU/mL measured by OD600) and then added to each well of the compound-containing plates (384-well non-binding surface (NBS) plates; Corning CLS3640), giving a cell density of 5 × 10^5 CFU/mL and a total volume of 50 μL. Plates were covered and incubated at 37 °C for 18 h without shaking. Inhibition of bacterial growth was determined by measuring the absorbance at 600 nm (OD600) using media only as negative control and bacteria without inhibitors as positive control. MIC values were determined as the lowest concentration at which the growth was inhibited by ≥80% (equivalent to no visible growth by the eye). Colistin sulfate (Sigma C4461) and vancomycin HCl (Sigma 861987) were used as internal controls on each plate for Gram-negative and Gram-positive bacteria, respectively. All compounds were tested as two technical replicates in two independent biological assays, n = 4 final data.

[4] = test system: Escherichia coli ATCC 25922 FDA control strain; experiment: CO-ADD antibacterial MIC assay; type: cell-based; details: initial CO-ADD dose-response screening; ≥80% growth inhibition
Procedure: as §2

[5] = test system: Acinetobacter baumannii ATCC 19606 type strain; experiment: CO-ADD antibacterial MIC assay; type: cell-based; details: initial CO-ADD dose-response screening; ≥80% growth inhibition
Procedure: as §2

[6] = test system: methicillin-resistant Staphylococcus aureus ATCC 43300; experiment: CO-ADD antibacterial MIC assay; type: cell-based; details: initial CO-ADD dose-response screening; ≥80% growth inhibition
Procedure: as §2

[7] = test system: Cryptococcus deuterogattii CBS7750 VGII; Serotype B; experiment: Antifungal MIC assay, extended panel; type: cell-based; details: extended panel; 50% inhibition, MIC score 2
[8] = test system: Cryptococcus deuterogattii ATCC 32609 VGII; experiment: Antifungal MIC assay, extended panel; type: cell-based; details: extended panel, second batch; ≥80 or ≥50% inhibition
Procedure: (§3) For the fungal assays, both fungi (yeast) strains were cultured for 3 days on Yeast Extract-Peptone Dextrose (YPD; Becton Dickinson 242720) agar at 30 °C. A yeast suspension of 1 × 10^6 to 5 × 10^6 CFU/mL (as determined by OD530) was prepared from five colonies from the agar plates, subsequently diluted with Yeast Nitrogen Base media (YNB; Becton Dickinson 233520), and added to each well of the compound containing plates (384-well plates, NBS; Corning CLS3640), giving a final cell density of 2.5 × 10^3 CFU/mL and a total volume of 50 μL. Plates were covered and incubated at 35 °C for 36 h without shaking. […] MIC values were recorded as the lowest concentration at which the growth was inhibited by ≥80%, equivalent to ″optically clear-to-slightly hazy″ or MIC score of 0–1 as per CLSI guidelines M27 Reference Method for Broth Dilution Antifungal Susceptibility Testing of Yeasts. […] Fluconazole (Sigma F8929) was used as internal control on each plate for all strains. All compounds were tested as two technical replicates in two to four independent biological assays, n = 4–8 final data.

[9] = test system: Cryptococcus deuterogattii CBS7750 VGII; Serotype B; experiment: Antifungal MIC assay, extended panel; type: cell-based; details: extended panel, second batch; ≥80 or ≥50% inhibition
Procedure: as §3

[10] = test system: Candida tropicalis ATCC 750; experiment: Antifungal MIC assay, extended panel; type: cell-based; details: extended panel, second batch; ≥80 or ≥50% inhibition
Procedure: as §3

[11] = test system: Candida glabrata ATCC 90030 NCCLS 84; experiment: Antifungal MIC assay, extended panel; type: cell-based; details: extended panel, second batch; ≥80 or ≥50% inhibition
Procedure: as §3

[12] = test system: Candida albicans ATCC 90028 NCCLS11; experiment: Antifungal MIC assay; type: cell-based; details: for MIC Ca: initial CO-ADD dose-response screening, ≥80% growth inhibition
Summary of the method: as §1

[13] = test system: Candida auris CBS10913 JCM 15448; experiment: Antifungal MIC assay, extended panel; type: cell-based; details: extended panel
Procedure: as §3, with “values were recorded as the lowest concentration at which the growth was inhibited by ≥80%, equivalent to ″optically clear-to-slightly hazy″ or MIC score of 0–1 as per CLSI guidelines M27” left out

[14] = test system: Candida auris CBS12373 KCTC 17810; experiment: Antifungal MIC assay, extended panel; type: cell-based; details: extended panel
Procedure: as §3, with “values were recorded as the lowest concentration at which the growth was inhibited by ≥80%, equivalent to ″optically clear-to-slightly hazy″ or MIC score of 0–1 as per CLSI guidelines M27” left out

[15] = test system: HEK-293 human embryonic kidney cells ATCC CRL-1573
Procedure: The cells were incubated together with the compounds for 20 h at 37 °C in 5% CO2. […] Tamoxifen (Sigma T5648) was used as internal control on each plate.

[16] = test system: Cryptococcus deuterogattii ATCC 32609 VGII; experiment: Antifungal MIC assay, extended panel; type: cell-based; details: extended panel; 50% inhibition, MIC score 2
[17] = test system: Candida tropicalis ATCC 750; experiment: Antifungal MIC assay, extended panel; type: cell-based; details: extended panel; 50% inhibition, MIC score 2
[18] = initial CO-ADD screening, 1 h, 10% hemolysis
[19] = ranges obtained upon retesting, new batch
[20] = extended panel, 50% inhibition, MIC score 2
[21] = second batch, ≥80 or ≥50% inhibition
[22] = read-out: HEK293 CC50, ranges obtained upon retesting, new batch
[23] = read-out: HEK CC50, initial CO-ADD screening, 20 h

Row | SMILES | RBC HC10 (human red blood cells; [18]) | RBC HC10 (human red blood cells; [19]) | MIC ([2]; extended panel) | MIC Cn [2] | MIC Pa [3] | MIC Ec [4] | MIC Ab [5] | MIC MRSA (Sa) [6] | MIC Cryptococcus deuterogattii ATCC 32609 [8] | MIC [9] | MIC Ca [12] | CC50 [15, 22] | CC50 [15, 23] | further results
1 | CS(=O)(=O)[O][Pd][c]1ccccc1-c1ccccc1N.CS(=O)(=O)[O][Pd][c]1ccccc1-c1ccccc1N [Pd2] | >20 µM | 0.2 to 3 µM | 0.024 µM | 0.31 µM | >20 µM | >20 µM | >20 µM | >20 µM | 0.024 to 0.049 µM | 0.098 µM | 1.25 µM | 38 to 53 µM | > 20 µM | MIC50 Candida glabrata ATCC 90030 [1]: 0.012 to 0.195 µM; MIC50 Cryptococcus neoformans ATCC 208821 [2, 20]: ≤0.006 to 0.024 µM; MIC50 Cryptococcus deuterogattii CBS7750 [7]: ≤ 0.006 µM; MIC Candida tropicalis ATCC 750 [10]: 0.195 to 0.391 µM; MIC Candida glabrata ATCC 90030 [11]: 0.049 to 0.195 µM; MIC Candida albicans ATCC 90028 ([12]; extended panel, second batch, ≥80 or ≥50% inhibition): 0.05 to 0.2 µM; MIC50 Candida albicans ATCC 90028 [12, 20]: 0.049 to 0.195 µM; MIC Candida auris CBS10913 [13, 21]: 0.024 to 0.098 µM; MIC50 Candida auris CBS10913 ([13]; 50% inhibition, MIC score 2): 0.024 to 0.098 µM; MIC Candida auris CBS12373 [14, 21]: 0.024 to 0.049 µM; MIC50 Candida auris CBS12373 ([14]; 50% inhibition, MIC score 2): 0.024 to 0.049 µM; MIC50 Cryptococcus deuterogattii ATCC 32609 [16]: 0.024 to 0.098 µM; MIC50 Candida tropicalis ATCC 750 [17]: 0.195 to 0.391 µM
2 | C1=CCCC=CCC1.[Cl][Pd][Cl] [Pd1] | >20 µM | 10 µM | ≤0.78 µM | 0.63 µM | >20 µM | >20 µM | >20 µM | >20 µM | 1.56 to 3.12 µM | ≤0.78 µM | 1.25 µM | > 100 µM | > 20 µM | MIC [10]: 6.25 µM; MIC [11]: 3.12 µM; MIC ([12]; extended panel, second batch, ≥80 or ≥50% inhibition, read-out: MIC* Candida albicans ATCC 90028): 3.12 µM; MIC ([13]; second batch, ≥80 or ≥50% inhibition, read-out: MIC* Candida auris CBS10913): ≤0.78 µM; MIC ([14]; second batch, ≥80 or ≥50% inhibition, read-out: MIC* Candida auris CBS12373): ≤0.78 µM; cytotoxicity: none up to stated concentration ([15]; retest): > 100 µM
